Starred links: 1 amine or outer side, 2 acyl side, 3 side chain; linkers in the order of their positions; H or OH if unused. Residues, ends and D or L forms follow the SMILES beside them. Groups on a side chain read outwards from the residue. *: point of attachment. Glutaryl = O=C(CCCC(=O)[*:2])[*:1]; NHNH2 = NN*
Tests used:
Type in all cases: cell-based
A549 cells [1] = test: EGFP mRNA delivery, robotic library screening, A549
Method in brief: (§1)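 Transfection used amphiphile at final 2.5, 5 or 10 μM with EGFP mRNA (25 ng/well) for 4 h without serum, then medium with 10% FBS. Plate-reader EGFP signal at 72 h, untreated background removed, mean of triplicates.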

ARPE19 cells = test: EGFP mRNA delivery, robotic library screening, ARPE19
Method in brief: as §1

A549 cells [2] = test: RLuc pDNA delivery, robotic library screening, A549
Method in brief: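 A549 cells in DMEM+10% FBS were washed twice with PBS and exposed for 4 h to amphiphile/RLuc pDNA complexes prepared from DMSO stocks diluted in DMEM. After medium replacement and 72 hours, cells in HBSS were incubated at 37° C. for 30 minutes, basal then total luminescence measured after 5 μM coelenterazine h; background from untransfected cells was subtracted.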

HepG2 cells [3] = test: EGFP mRNA delivery, robotic library screening, HepG2; conditions: for mean fluorescence intensity after transfection of EGFP mRNA: HepG2 cells
Method in brief: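 This robotic library screen tested delivery of CleanCap EGFP mRNA (5moU) into HepG2 cells using amphiphilic molecules. Complexes were freshly prepared at room temperature and added to the cells, and the medium was then replaced with fresh DMEM plus 10% FBS. Total EGFP fluorescence was measured in a plate reader at 72 h in triplicate, with untreated-cell background subtracted.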

HepG2 cells [4] = test: RLuc pDNA delivery, robotic library screening, HepG2
Method in brief: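 After the 4 h exposure the complexes were replaced with fresh DMEM plus 10% FBS. At 72 hours cells were washed with HBSS, kept 30 minutes at 37° C. for basal readings, then given coelenterazine h (5 μM final) for 10 minutes before total luminescence was read. Triplicate means had untransfected background subtracted and were also expressed relative to Lipofectamine® 2000 set at 1.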

Ac-RK*LRRK*LRK*-NH2 (Ac-RK(NHNH2)LRRK(NHNH2)LRK(NHNH2)-NH2; not fully specified; printed as Ac-RK*LRRK*LRK*-NH2; also: K*2,K*6,K*9: native or modified lysine (ε-amide to a linker)) [Peptide 9.3]
mean fluorescence intensity (EGFP mRNA) (A549 cells [1]; Myristoleyl, 5 μM): 219
mean fluorescence intensity (EGFP mRNA) (A549 cells [1]; Myristoleyl, 10 μM): −17
mean fluorescence intensity (EGFP mRNA) (A549 cells [1]; Oleyl, 2.5 μM): 89
mean fluorescence intensity (EGFP mRNA) (A549 cells [1]; Oleyl, 5 μM): 399
mean fluorescence intensity (EGFP mRNA) (A549 cells [1]; Oleyl, 10 μM): 139
mean fluorescence intensity (EGFP mRNA) (A549 cells [1]; Petroselinyl, 2.5 μM): 94
mean fluorescence intensity (EGFP mRNA) (A549 cells [1]; Petroselinyl, 5 μM): 789
mean fluorescence intensity (EGFP mRNA) (A549 cells [1]; Petroselinyl, 10 μM): 349
mean fluorescence intensity (EGFP mRNA) (ARPE19 cells; Myristoleyl, 2.5 μM): 5042
mean fluorescence intensity (EGFP mRNA) (ARPE19 cells; Myristoleyl, 5 μM): 1233
mean fluorescence intensity (EGFP mRNA) (ARPE19 cells; Oleyl, 5 μM): 859
mean fluorescence intensity (EGFP mRNA) (ARPE19 cells; Oleyl, 10 μM): 919
mean fluorescence intensity (EGFP mRNA) (ARPE19 cells; Palmitoleyl, 5 μM): 948
mean fluorescence intensity (EGFP mRNA) (ARPE19 cells; Petroselinyl, 5 μM): 858
mean luminescent intensity (RLuc pDNA) (A549 cells [2]; Dodecanal, 10 μM): 2898 RLU
mean luminescent intensity (RLuc pDNA) (A549 cells [2]; Myristoleyl, 5 μM): 23125 RLU
mean luminescent intensity (RLuc pDNA) (A549 cells [2]; Myristoleyl, 10 μM): 32698 RLU
mean luminescent intensity (RLuc pDNA) (A549 cells [2]; Myristoleyl, 15 μM): 6504 RLU
mean luminescent intensity (RLuc pDNA) (A549 cells [2]; Oleyl, 10 μM): 1117 RLU
mean luminescent intensity (RLuc pDNA) (A549 cells [2]; Oleyl, 15 μM): 1433 RLU
mean luminescent intensity (RLuc pDNA) (A549 cells [2]; Palmitoleyl, 10 μM): 5800 RLU
mean luminescent intensity (RLuc pDNA) (A549 cells [2]; Palmitoleyl, 15 μM): 9967 RLU
mean luminescent intensity (RLuc pDNA) (A549 cells [2]; Petroselinyl, 10 μM): 4167 RLU
mean luminescent intensity (RLuc pDNA) (A549 cells [2]; Petroselinyl, 15 μM): 5514 RLU
mean fluorescence intensity after transfection of EGFP mRNA (HepG2 cells [3]; Myristoleyl, 15 μM): 867
mean fluorescence intensity after transfection of EGFP mRNA (HepG2 cells [3]; Oleyl, 5 μM): 382
mean fluorescence intensity after transfection of EGFP mRNA (HepG2 cells [3]; Oleyl, 10 μM): 802
mean fluorescence intensity after transfection of EGFP mRNA (HepG2 cells [3]; Oleyl, 15 μM): 231
mean fluorescence intensity after transfection of EGFP mRNA (HepG2 cells [3]; Palmitoleyl, 10 μM): 1226
mean fluorescence intensity after transfection of EGFP mRNA (HepG2 cells [3]; Palmitoleyl, 15 μM): 629
mean luminescent intensity (RLuc pDNA) (HepG2 cells [4]; Dodecanal, 10 μM): 25099 RLU
mean luminescent intensity (RLuc pDNA) (HepG2 cells [4]; Dodecanal, 15 μM): 21420 RLU
mean luminescent intensity (RLuc pDNA) (HepG2 cells [4]; Myristoleyl, 5 μM): 57891 RLU
mean luminescent intensity (RLuc pDNA) (HepG2 cells [4]; Myristoleyl, 10 μM): 244850 RLU
mean luminescent intensity (RLuc pDNA) (HepG2 cells [4]; Myristoleyl, 15 μM): 286208 RLU
mean luminescent intensity (RLuc pDNA) (HepG2 cells [4]; Petroselinyl, 15 μM): 50057 RLU

CC(=O)N[C@@H](CCCNC(=N)N)C(=O)N[C@@H](CCCCNC(=O)CCCC(=O)NN)C(=O)N[C@@H](Cc1c[nH]cn1)C(=O)N[C@@H](CCCNC(=N)N)C(=O)N[C@@H](CCCCNC(=O)CCCC(=O)NN)C(=O)N[C@@H](CCCCNC(=O)CCCC(=O)NN)C(=O)N[C@@H](Cc1c[nH]cn1)C(N)=O [7.3(L-H), Ac-RK*HRK*K*H-NH2] (Ac-RK([Glutaryl-NHNH2])HRK([Glutaryl-NHNH2])K([Glutaryl-NHNH2])H-NH2)
mean fluorescence intensity (EGFP mRNA) (A549 cells [1]; Dodecanal, 2.5 μM): 570
mean fluorescence intensity (EGFP mRNA) (A549 cells [1]; Dodecanal, 5 μM): 375
mean fluorescence intensity (EGFP mRNA) (A549 cells [1]; Dodecanal, 10 μM): 587
mean fluorescence intensity (EGFP mRNA) (A549 cells [1]; Myristoleyl, 2.5 μM): 19549
mean fluorescence intensity (EGFP mRNA) (A549 cells [1]; Myristoleyl, 5 μM): 6729
mean fluorescence intensity (EGFP mRNA) (A549 cells [1]; Myristoleyl, 10 μM): 2718
mean fluorescence intensity (EGFP mRNA) (A549 cells [1]; Oleyl, 2.5 μM): 12392
mean fluorescence intensity (EGFP mRNA) (A549 cells [1]; Oleyl, 5 μM): 4708
mean fluorescence intensity (EGFP mRNA) (A549 cells [1]; Oleyl, 10 μM): 1954
mean fluorescence intensity (EGFP mRNA) (A549 cells [1]; Palmitoleyl, 2.5 μM): 52764
mean fluorescence intensity (EGFP mRNA) (A549 cells [1]; Palmitoleyl, 5 μM): 19296
mean fluorescence intensity (EGFP mRNA) (A549 cells [1]; Palmitoleyl, 10 μM): 3995
mean fluorescence intensity (EGFP mRNA) (A549 cells [1]; Petroselinyl, 2.5 μM): 9125
mean fluorescence intensity (EGFP mRNA) (A549 cells [1]; Petroselinyl, 5 μM): 2712
mean fluorescence intensity (EGFP mRNA) (A549 cells [1]; Petroselinyl, 10 μM): −119
mRNA delivery relative to Lipofectamine MessengerMAX (A549 cells [1]; palmitoleyl aldehyde): two times better
mean fluorescence intensity (EGFP mRNA) (ARPE19 cells; Myristoleyl, 2.5 μM): 22958
mean fluorescence intensity (EGFP mRNA) (ARPE19 cells; Myristoleyl, 5 μM): 6178
mean fluorescence intensity (EGFP mRNA) (ARPE19 cells; Myristoleyl, 10 μM): 1216
mean fluorescence intensity (EGFP mRNA) (ARPE19 cells; Oleyl, 5 μM): 9014
mean fluorescence intensity (EGFP mRNA) (ARPE19 cells; Oleyl, 10 μM): 4676
mean fluorescence intensity (EGFP mRNA) (ARPE19 cells; Palmitoleyl, 2.5 μM): 35030
mean fluorescence intensity (EGFP mRNA) (ARPE19 cells; Palmitoleyl, 5 μM): 28077
mean fluorescence intensity (EGFP mRNA) (ARPE19 cells; Palmitoleyl, 10 μM): 4574
mean fluorescence intensity (EGFP mRNA) (ARPE19 cells; Petroselinyl, 2.5 μM): 6471
mean fluorescence intensity (EGFP mRNA) (ARPE19 cells; Petroselinyl, 5 μM): 38057
mean fluorescence intensity (EGFP mRNA) (ARPE19 cells; Petroselinyl, 10 μM): 29449
mean luminescent intensity (RLuc pDNA) (A549 cells [2]; Myristoleyl, 5 μM): 184442 RLU
mean luminescent intensity (RLuc pDNA) (A549 cells [2]; Myristoleyl, 10 μM): 147873 RLU
mean luminescent intensity (RLuc pDNA) (A549 cells [2]; Myristoleyl, 15 μM): 31551 RLU
mean luminescent intensity (RLuc pDNA) (A549 cells [2]; Oleyl, 5 μM): 4031 RLU
mean luminescent intensity (RLuc pDNA) (A549 cells [2]; Palmitoleyl, 5 μM): 109148 RLU
mean luminescent intensity (RLuc pDNA) (A549 cells [2]; Palmitoleyl, 10 μM): 140079 RLU
mean luminescent intensity (RLuc pDNA) (A549 cells [2]; Palmitoleyl, 15 μM): 105643 RLU
mean luminescent intensity (RLuc pDNA) (A549 cells [2]; Petroselinyl, 5 μM): 94011 RLU
mean luminescent intensity (RLuc pDNA) (A549 cells [2]; Petroselinyl, 10 μM): 139603 RLU
mean luminescent intensity (RLuc pDNA) (A549 cells [2]; Petroselinyl, 15 μM): 6719 RLU
pDNA delivery, times better than Lipofectamine 2000 (A549 cells [2]; palmitoleyl or petroselinyl aldehydes): 30 times
mean fluorescence intensity after transfection of EGFP mRNA (HepG2 cells [3]; Dodecanal, 5 μM): 1140
mean fluorescence intensity after transfection of EGFP mRNA (HepG2 cells [3]; Dodecanal, 10 μM): 201
mean fluorescence intensity after transfection of EGFP mRNA (HepG2 cells [3]; Dodecanal, 15 μM): 533
mRNA delivery relative to Lipofectamine MessengerMAX (HepG2 cells [3]; HepG2, myristoleyl or petroselinyl aldehydes): able to outperform the activity of Lipofectamine® MessengerMAX
mean fluorescence intensity after transfection of EGFP mRNA (HepG2 cells [3]; Myristoleyl, 5 μM): 31364
mean fluorescence intensity after transfection of EGFP mRNA (HepG2 cells [3]; Myristoleyl, 10 μM): 12495
mean fluorescence intensity after transfection of EGFP mRNA (HepG2 cells [3]; Myristoleyl, 15 μM): 3194
mean fluorescence intensity after transfection of EGFP mRNA (HepG2 cells [3]; Oleyl, 5 μM): 4242
mean fluorescence intensity after transfection of EGFP mRNA (HepG2 cells [3]; Oleyl, 10 μM): 1217
mean fluorescence intensity after transfection of EGFP mRNA (HepG2 cells [3]; Oleyl, 15 μM): 1484
mean fluorescence intensity after transfection of EGFP mRNA (HepG2 cells [3]; Palmitoleyl, 5 μM): 8855
mean fluorescence intensity after transfection of EGFP mRNA (HepG2 cells [3]; Palmitoleyl, 10 μM): 3885
mean fluorescence intensity after transfection of EGFP mRNA (HepG2 cells [3]; Petroselinyl, 5 μM): 35842
mean fluorescence intensity after transfection of EGFP mRNA (HepG2 cells [3]; Petroselinyl, 10 μM): 18737
mean fluorescence intensity after transfection of EGFP mRNA (HepG2 cells [3]; Petroselinyl, 15 μM): 4860
mean luminescent intensity (RLuc pDNA) (HepG2 cells [4]; Myristoleyl, 5 μM): 355590 RLU
mean luminescent intensity (RLuc pDNA) (HepG2 cells [4]; Myristoleyl, 10 μM): 584678 RLU
mean luminescent intensity (RLuc pDNA) (HepG2 cells [4]; Myristoleyl, 15 μM): 406961 RLU
mean luminescent intensity (RLuc pDNA) (HepG2 cells [4]; Oleyl, 5 μM): 142065 RLU
mean luminescent intensity (RLuc pDNA) (HepG2 cells [4]; Oleyl, 10 μM): 68668 RLU
mean luminescent intensity (RLuc pDNA) (HepG2 cells [4]; Palmitoleyl, 5 μM): 642665 RLU
mean luminescent intensity (RLuc pDNA) (HepG2 cells [4]; Palmitoleyl, 10 μM): 519370 RLU
mean luminescent intensity (RLuc pDNA) (HepG2 cells [4]; Palmitoleyl, 15 μM): 265272 RLU
mean luminescent intensity (RLuc pDNA) (HepG2 cells [4]; Petroselinyl, 5 μM): 466959 RLU
mean luminescent intensity (RLuc pDNA) (HepG2 cells [4]; Petroselinyl, 10 μM): 437890 RLU
mean luminescent intensity (RLuc pDNA) (HepG2 cells [4]; Petroselinyl, 15 μM): 98868 RLU
